Patent US7446079B2, “Perfumes for rinse-off systems” (Givaudan Fragrances Corporation, priority 2005, dated 2008)
Like-named read-outs stand apart in the source and are kept apart here.

Key:
[1] = in water, cited from earlier work; for exp ODT (ppb) water: experimental values from the Booleans database
[2] = GC-MS headspace release profile of Tropical Fruit perfume in shampoo, 1/100 dilution in water; assay type: physicochemical
Experimental: A 10 gram sample of formulation and fragrance was added to an empty 1000 ml pyrex beaker. This beaker was then filled with 1000 ml of 120 F tap water. Beaker with diluted shampoo sample was then immediately placed into a semi-enclosed plexiglass chamber.
Headspace Sampling: Once beaker was placed into chamber a Carboxan SPME field fiber was held at the top-side opening of the chamber over the beaker containing the sample. […] […] Top of plexiglass chamber was held open for entire 5 minutes of headspace sampling.

CCCCCC1C(=O)CCC1CC(=O)OC (stereo not shown) [HEDIONE]
ODT (ppb) ([1]; Table 9): less than 50 ppb
ODT (ppb) ([1]; Table 11): less than 50 ppb
ODT (ppb) ([1]; Table 13): less than 50 ppb
GC Abundance ([2]; headspace at 50 seconds): 4000

CC/C=C\CCOC(C)=O [CIS-3-HEXENYL ACETATE]
ODT (ppb) ([1]; Table 9): less than 50 ppb
ODT (ppb) ([1]; Table 11): less than 50 ppb
ODT (ppb) ([1]; Table 13): less than 50 ppb
GC Abundance ([2]; headspace at 20 seconds): 5000
GC Abundance ([2]; headspace at 30 seconds): 14000
GC Abundance ([2]; headspace at 40 seconds): 14000
GC Abundance ([2]; headspace at 50 seconds): 14000

CC(=O)OC1CCCCC1C(C)(C)C (stereo not shown) [VERDOX]
ODT (ppb) ([1]; Table 9): less than 50 ppb
ODT (ppb) ([1]; Table 11): less than 50 ppb
ODT (ppb) ([1]; Table 13): less than 50 ppb
GC Abundance ([2]; headspace at 20 seconds): 5000
GC Abundance ([2]; headspace at 30 seconds): 14000
GC Abundance ([2]; headspace at 40 seconds): 18000
GC Abundance ([2]; headspace at 50 seconds): 20000

C=CC(C)(O)CCC=C(C)C (stereo not shown) [LINALOOL]
ODT (ppb) ([1]; Table 9): less than 50 ppb
ODT (ppb) ([1]; Table 11): less than 50 ppb
ODT (ppb) ([1]; Table 13): less than 50 ppb
GC Abundance ([2]; headspace at 10 seconds): 500
GC Abundance ([2]; headspace at 20 seconds): 18000
GC Abundance ([2]; headspace at 30 seconds): 18000
GC Abundance ([2]; headspace at 40 seconds): 18000
GC Abundance ([2]; headspace at 50 seconds): 18000

C=CCOC(=O)CCC1CCCCC1 [ALLYL CYCLOHEXYL PROPIONATE]
ODT (ppb) ([1]; Table 9): less than 50 ppb
ODT (ppb) ([1]; Table 11): less than 50 ppb
ODT (ppb) ([1]; Table 13): less than 50 ppb
GC Abundance ([2]; headspace at 40 seconds): 7000
GC Abundance ([2]; headspace at 50 seconds): 10000

CCOC(=O)C(C)CC (stereo not shown) [Ethyl 2-methylbutyrate]
exp ODT (ppb) water [1]: 0.1-0.3 ppb
GC Abundance ([2]; headspace at 10 seconds): 3000
GC Abundance ([2]; headspace at 20 seconds): 3100
GC Abundance ([2]; headspace at 30 seconds): 3100
GC Abundance ([2]; headspace at 40 seconds): 2000
GC Abundance ([2]; headspace at 50 seconds): 1500

CC=CC(=O)C1=C(C)C=CCC1(C)C [DAMASCENONE, 1-(2,6,6-Trimethylcyclohexa-1,3-dienyl)-2-buten-1-one]
exp ODT (ppb) water [1]: 0.002 ppb
GC Abundance ([2]; headspace at 50 seconds): 1000

CCCCCCC(C=O)=Cc1ccccc1 [HEXYL CINNAMIC ALDEHYDE]
ODT (ppb) ([1]; Table 13): less than 50 ppb
GC Abundance ([2]; headspace at 40 seconds): 2000
GC Abundance ([2]; headspace at 50 seconds): 9000

CCCC(=O)OCC [ETHYL BUTYRATE]
ODT (ppb) ([1]; Table 9): less than 50 ppb
ODT (ppb) ([1]; Table 11): less than 50 ppb
ODT (ppb) ([1]; Table 13): less than 50 ppb
exp ODT (ppb) water [1]: 1 ppb
GC Abundance ([2]; headspace at 10 seconds): 2800
GC Abundance ([2]; headspace at 20 seconds): 2800
GC Abundance ([2]; headspace at 30 seconds): 2800
GC Abundance ([2]; headspace at 40 seconds): 2000
GC Abundance ([2]; headspace at 50 seconds): 800

CC(C)=CC1CC(C)CCO1 (stereo not drawn) [ROSE OXIDE (HIGH CIS), Tetrahydro-4-methyl-2-(2-methylpropen-1-yl)pyran]
exp ODT (ppb) water [1]: 0.5 ppb
GC Abundance ([2]; headspace at 20 seconds): 10000
GC Abundance ([2]; headspace at 30 seconds): 14000
GC Abundance ([2]; headspace at 40 seconds): 14000
GC Abundance ([2]; headspace at 50 seconds): 14000

CC=CC(=O)C1C(C)=CCCC1(C)C (stereo not drawn) [alpha-DAMASCONE, α-1-(2,6,6-Trimethyl-2-cyclohexen-1-yl)-2-buten-1-one]
exp ODT (ppb) water [1]: 1.5 ppb
GC Abundance ([2]; headspace at 40 seconds): 1000
GC Abundance ([2]; headspace at 50 seconds): 5000

CC1=CC(C)C(C=O)CC1 (stereo not shown) [TRIPLAL]
ODT (ppb) ([1]; Table 9): less than 50 ppb
ODT (ppb) ([1]; Table 11): less than 50 ppb
ODT (ppb) ([1]; Table 13): less than 50 ppb
GC Abundance ([2]; headspace at 10 seconds): 1000
GC Abundance ([2]; headspace at 20 seconds): 14000
GC Abundance ([2]; headspace at 30 seconds): 14000
GC Abundance ([2]; headspace at 40 seconds): 10000
GC Abundance ([2]; headspace at 50 seconds): 6000

CC(=O)C=CC1=C(C)CCCC1(C)C [IONONE BETA PURE, 4-(2,6,6-Trimethyl-1-cyclohexen-1-yl)-3-buten-2-one]
ODT (ppb) ([1]; Table 9): less than 50 ppb
ODT (ppb) ([1]; Table 11): less than 50 ppb
ODT (ppb) ([1]; Table 13): less than 50 ppb
exp ODT (ppb) water [1]: 4-6 ppb
GC Abundance ([2]; headspace at 30 seconds): 2000
GC Abundance ([2]; headspace at 40 seconds): 10000
GC Abundance ([2]; headspace at 50 seconds): 18000

CCCC(C)C(=O)OCC (stereo not shown) [MANZANATE, Ethyl 2-methylpentanoate]
exp ODT (ppb) water [1]: 0.0030 ppb
GC Abundance ([2]; headspace at 10 seconds): 1000
GC Abundance ([2]; headspace at 20 seconds): 4000
GC Abundance ([2]; headspace at 30 seconds): 4000
GC Abundance ([2]; headspace at 40 seconds): 3000
GC Abundance ([2]; headspace at 50 seconds): 1500

CCCCCCC1CCC(=O)O1 (stereo not shown) [GAMMA-DECALACTONE, 5-Hexyldihydro-2(3H)-furanone]
ODT (ppb) ([1]; Table 9): less than 50 ppb
ODT (ppb) ([1]; Table 11): less than 50 ppb
ODT (ppb) ([1]; Table 13): less than 50 ppb
GC Abundance ([2]; headspace at 40 seconds): 4000
GC Abundance ([2]; headspace at 50 seconds): 7000
